Reference: patent US20180338955A1, “METHODS FOR REGULATION AND TREATMENT OF GLIOMA CELL MIGRATION AND GLIOBLASTOMA” (priority 2015, published 2018)
Entries after “also recorded” stand apart in the source; their conditions may differ.

Legend:
[1] = test system: glioma xenografts; conditions: in vivo; cited from earlier work
[2] = test system: U87 glioma cells; conditions: U87 glioma cells cultured on tenascin and vitronectin; cited from earlier work
[3] = biological target: T1, Lyn (Homo sapiens, UniProt P07948); assay: Immunoprecipitation/Western blot, phosphorylation state of Lyn; assay type: cell-based; conditions: human glioma cells, 500 nm
Experimental: (§1) For immunoprecipitation studies, U87 MG cells treated with A77 or DMSO vehicle were lysed in 1×RIPA buffer containing protease and phosphatase inhibitors (Sigma). Lysates were cleared via centrifugation and were pre-cleared with TrueBlot anti-rabbit IgG beads (eBiosience) to remove non-specific binding. Primary antibodies against Lck, Src, Fyn, Lyn or Yes (Cell Signaling) were added and the lysates were incubated overnight at 4° C. with gentle rotation. The following day, TrueBlot anti-rabbit IgG (eBioscience) beads were added to the lysate and incubated at 4° C. for 2 hours. Immunoprecipitates were washed, solubilized in 2×Laemmli buffer and boiled for 5 minutes. The supernatants were separated on an 8% Bis-Tris SDS-PAGE gel, transferred to nitrocellulose and immunoblotted.
Target sequence in this assay (P07948 whole entry): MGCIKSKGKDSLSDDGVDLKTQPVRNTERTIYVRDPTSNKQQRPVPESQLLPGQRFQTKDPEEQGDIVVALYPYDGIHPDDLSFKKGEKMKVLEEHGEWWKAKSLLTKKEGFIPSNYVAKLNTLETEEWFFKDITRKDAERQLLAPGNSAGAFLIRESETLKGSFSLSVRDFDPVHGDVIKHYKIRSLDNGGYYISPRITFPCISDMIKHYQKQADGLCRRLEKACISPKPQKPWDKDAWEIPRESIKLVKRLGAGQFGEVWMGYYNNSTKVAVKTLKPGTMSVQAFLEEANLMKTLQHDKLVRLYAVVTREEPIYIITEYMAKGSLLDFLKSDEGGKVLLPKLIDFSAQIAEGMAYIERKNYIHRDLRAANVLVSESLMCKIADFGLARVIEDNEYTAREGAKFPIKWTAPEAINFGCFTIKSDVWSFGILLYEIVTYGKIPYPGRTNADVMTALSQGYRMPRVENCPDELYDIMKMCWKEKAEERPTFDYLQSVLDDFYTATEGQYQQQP

[4] = test system: human GSCs; assay: Migration of human GSCs on purified DRG axon cultures; assay type: cell-based; conditions: purified DRG axons, 72 hours
Experimental: To assess the effect of the Lck inhibitor on migrating glioma cells, GBM spheres were seeded on rat DRG cultures in Supplemented NB-A Medium containing 10% FBS. Spheres were allowed to attach for one hour. Cultures were treated with 500 nM of Lck inhibitor or DMSO vehicle for 72 hours. Samples were fixed in 4% formaldehyde for 10 minutes, permeabilized and blocked with 5% normal goat serum containing 0.3% Triton X-100 in 1×PBS (Sigma) at RT for 1 hour. The samples were stained overnight at 4° C. with Ki67 (Cell Signaling), GFAP (DAKO) and NF (EnCor Biotechnology). Area of glioma stem cell migration for each sample was calculated by normalizing the total area of migration to the interior area of the non-migrating sphere mass. Differences between groups were then confirmed using Student's test.

[5] = test system: phospho(Y118)-paxillin; assay: Immunocytochemistry of phospho(Y118)-paxillin in human GSCs; assay type: cell-based; conditions: 500 nM, 2 hours, versus control
Experimental: (§2) To assess pseudopodia formation, GBM stem cells were seeded on fibronectin coated (10 ug/ml, Sigma) glass chamber slides (NUNC) in the presence of serum for 2.5 hours. Cultures were treated with 500 nM of Lck inhibitor or DMSO vehicle for 2 hours and then fixed in 4% formaldehyde. Samples were permeabilized and blocked with 5% normal goat serum containing 0.3% Triton X-100 in 1×PBS (Sigma) at RT for 1 hour. The samples were stained overnight at 4° C. with Phospho-Paxillin (CellSignaling). The following day, secondary antibodies were applied at manufacturer recommended dilutions for 1 hour at RT (Jackson ImmunoResearch). Samples were subsequently stained with Rhodamine RedX Phalloidin (Life Technologies) and Hoescht 33342 (Life Technologies) following manufacturer's protocols. Slides were mounted with Aqua Poly/Mount (Polysciences) and imaged using a Zeiss confocal microscope. Adobe Photoshop was used to count the total number of pseudopodia, which included both axial and radial projections, per cell for each group. Differences between groups were confirmed using Student's t-test.

[6] = test system: human GSCs; assay: Invasion in Alvetex scaffold; assay type: cell-based; conditions: 500 nM, 72 hours, versus untreated
Experimental: Alvetex scaffolds were coated with fibronectin (10 μg/ml) for 2 hours at 37° C. 750,000 GBM cells were plated in the center of each scaffold and allowed to attach for one hour. Cultures were grown in Supplemented NB-A Medium containing 10% FBS. Cultures were treated with 500 nM of Lck inhibitor or DMSO vehicle for 72 hours. Samples were fixed in 4% formaldehyde for 10 minutes, permeabilized with 0.1% Triton X-100 and blocked with 1% BSA-PBS for 30 minutes at room temperature. Samples were subsequently stained with Rhodamine RedX Phalloidin (Life Technologies) and Hoescht 33342 (Life Technologies) following manufacturer's protocols. Slides were mounted with Aqua Poly/Mount (Polysciences) and imaged using a Zeiss confocal microscope.

[7] = test system: human glioblastoma (hGSCs); assay: Orthotopic xenograft mouse model of human glioblastoma; assay type: in vivo, Nu/J mice
Experimental: To determine the effect of inhibition of Lck signaling in human glioma formation in vivo, Applicants used an orthotopic xenograft mouse model of human glioblastoma (Singh et al., 2004; Valadez et al., 2014). Applicants injected under stereotactic guidance 200,000 hGSCs at coordinates −2.0 mm AP and +1.5 mm ML relative to Bregma. The Lck-I or the PBS/DMSO were administered through an Alzet pump in the lateral ventricle continuously for 4 weeks. Brains were formalin fixed and stained for human Ki67 4 weeks after the implantation.
Intracranial injections were performed using a stereotaxic apparatus (Kopf) on 8-week-old Nu/J mice initially sedated with 4% isoflurane and maintained with 2% isoflurane. After leveling the skull, a hole was drilled with a #72 micro drill bit (Kyocera) at coordinates −2.0 mm AP and +1.5 mm ML relative to Bregma. A 75 RN Hamilton syringe was then lowered to a depth of −2.5 mm DV at a rate of 0.5 mm per minute, and 200,000 primary GSCs from donor 2 resuspended in a total volume of 4 μl were injected at a rate of 0.5 μl per minute using a Stoelting Quintessiential Stereotaxic Injector. In order to reduce backflow, the syringe was allowed to rest for 2 minutes post-injection before it was withdrawn at a rate of 0.5 mm per minute, and the cavity was immediately sealed with bone wax (Ethicon). A subcutaneous pocket was formed, and an Alzet osmotic pump 1004 fitted with brain infusion kit 3 and containing either 1.175 mg of A77 (Axon Medchem) or DMSO/Kolliphor ELP vehicle was inserted near the left hind limb of the animal. A second hole was drilled at coordinates of +0.5 mm and +1.1 mm ML relative to Bregma with the same micro drill bit to allow placement of the brain infusion catheter in the right lateral ventricle. The brain infusion catheter was lowered into the brain and glued to the skull using Loctite 454 cyanoacrylate adhesive. The incision was sealed using veterinary tissue glue and a dab of antibiotic ointment was placed over the head and neck. Animals were monitored daily for weight loss, pain and distress. After four weeks, animals were euthanized with pentobarbital and perfused with 4% formaldehyde. Brains were harvested, post-fixed in 4% formaldehyde, and processed for paraffin embedding. Paraffin embedded tissue was sliced on a microtome to […] sections and placed on microscope slides. Tissues were stained for H&E and ki67 (Roche) using a Ventana Autostainer. Images were captured using a Zeiss Axiovert inverted microscope.

[8] = test system: phospho(Y221)-CrkII; assay: Western blot of hGSC lysates for phospho(Y221)-CrkII; assay type: cell-based, human; conditions: hGSCs (GSC1, GSC2) on fibronectin, 500 nM, 2 hours
Source text: (§3) For total cell lysates, cultures were lysed in 1×SDS lysis buffer supplemented with protease and phosphatase inhibitors (Sigma). Lysates were sonicated and cleared by centrifugation. Samples were separated on 4-12% Bis-Tris SDS-PAGE gels (NuPAGE), transferred on to nitrocellulose and immunoblotted using the following primary antibodies: p(Y418)-Src family, Lck (D88), […], pCrkII (Cell Signaling), mortalin (a kind gift of Dr. Alice Cavanaugh), and β-actin (Sigma). A custom phospho-specific polyclonal antibody was generated against p(Y394)-Lck and affinity-purified against total Lck, Fyn and Lyn (Thermo Fisher). Secondary antibodies used were HRP-conjugate goat anti-mouse and goat anti-rabbit (Cell Signaling). Semi-quantitative analysis was conducted with FluorChem SP analytical software. Statistical significance was determined by the two-tailed Student's t-test.

[9] = biological target: T2, phospho(Y394)-Lck (Homo sapiens, UniProt P06239); assay: Western blot of hGSC lysates for phospho(Y394)-Lck; assay type: cell-based; conditions: hGSCs (GSC1, GSC2) on fibronectin, 500 nM, 2 hours
T2 construct: hGSCs isolated from two patients with glioblastomas (GSC1 and GSC2) left untreated or treated with 500 nM Lck-I for 2 hours; endogenous in cells; host or cells: primary human glioma stem cells (GSC1, GSC2) from two glioblastoma patients
T2 sequence (P06239 whole entry): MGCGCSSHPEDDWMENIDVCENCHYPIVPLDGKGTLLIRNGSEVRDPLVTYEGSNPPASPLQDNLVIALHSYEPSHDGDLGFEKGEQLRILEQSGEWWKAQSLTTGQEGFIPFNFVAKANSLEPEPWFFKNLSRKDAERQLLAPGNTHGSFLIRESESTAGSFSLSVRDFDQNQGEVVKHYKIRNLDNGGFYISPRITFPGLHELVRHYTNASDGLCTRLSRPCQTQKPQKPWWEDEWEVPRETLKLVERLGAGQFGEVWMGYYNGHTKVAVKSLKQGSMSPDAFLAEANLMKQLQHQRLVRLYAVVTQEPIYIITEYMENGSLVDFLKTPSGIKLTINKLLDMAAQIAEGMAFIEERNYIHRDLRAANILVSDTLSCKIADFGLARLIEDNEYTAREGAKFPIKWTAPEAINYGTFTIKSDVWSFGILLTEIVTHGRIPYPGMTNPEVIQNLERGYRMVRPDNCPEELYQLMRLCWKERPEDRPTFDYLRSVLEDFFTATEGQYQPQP
Experimental: For total cell lysates, cultures were lysed in 1×SDS lysis buffer supplemented with protease and phosphatase inhibitors (Sigma). Lysates were sonicated and cleared by centrifugation. […] A custom phospho-specific polyclonal antibody was generated against p([MUT])-Lck and affinity-purified against total Lck, Fyn and Lyn (Thermo Fisher). Secondary antibodies used were HRP-conjugate goat anti-mouse and goat anti-rabbit (Cell Signaling). Semi-quantitative analysis was conducted with FluorChem SP analytical software. Statistical significance was determined by the two-tailed Student's t-test.

[10] = test system: phospho(Y118)-paxillin; assay: Western blot of hGSC lysates for phospho(Y118)-paxillin; assay type: cell-based, human; conditions: hGSCs (GSC1, GSC2) on fibronectin, 500 nM, 2 hours
Source text: as §3

[11] = test system: human GSCs; assay: Migration of human GSCs along parallel DRG axonal bundles (coverslips with parallel scratches); assay type: cell-based; conditions: human GSC-DRG axon co-cultures, versus DMSO control
Experimental: As inhibition of Lck signalling has a dramatic effect on pseudopodia extension and retraction, Applicants investigated whether Lck may also function to regulate the migration and invasion of human GSCs. […] To assess the effect of Lck signaling on the migration and interaction of hGSCs with DRG axons, Applicants seeded hGSCs on DRG axons and treated the cultures with Lck-I or PBS/DMSO for 72 hours. […] To quantify the effect of Lck inhibition on GSC migration, Applicants added GSCs on DRG axons with and without Lck-I and quantified the surface area covered by the migrating glioma cells using Image-J.

[12] = biological target: T1, Lyn; conditions: cited from earlier work
Target sequence in this assay (P07948 whole entry, species assumed): as the sequence (P07948 whole entry) above

[13] = biological target: T3, Fyn (Homo sapiens, UniProt P06241); conditions: cited from earlier work
Target sequence in this assay (P06241 whole entry, species assumed): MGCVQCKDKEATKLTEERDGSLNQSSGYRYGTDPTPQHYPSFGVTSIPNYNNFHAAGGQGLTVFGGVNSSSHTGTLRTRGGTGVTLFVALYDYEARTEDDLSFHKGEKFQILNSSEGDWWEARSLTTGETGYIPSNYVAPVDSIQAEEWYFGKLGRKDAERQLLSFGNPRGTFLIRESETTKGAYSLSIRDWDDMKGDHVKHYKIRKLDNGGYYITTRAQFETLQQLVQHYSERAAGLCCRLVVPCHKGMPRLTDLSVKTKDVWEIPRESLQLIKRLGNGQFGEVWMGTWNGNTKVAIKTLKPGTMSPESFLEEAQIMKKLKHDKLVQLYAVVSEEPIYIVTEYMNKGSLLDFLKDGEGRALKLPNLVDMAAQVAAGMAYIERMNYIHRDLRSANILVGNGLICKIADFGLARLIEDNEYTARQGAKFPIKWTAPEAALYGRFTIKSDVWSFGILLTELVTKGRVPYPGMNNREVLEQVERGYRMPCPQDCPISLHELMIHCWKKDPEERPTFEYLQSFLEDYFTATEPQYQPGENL

[14] = test system: human GSCs; assay: xCELLigence impedance assay of cell spreading/migration; assay type: cell-based; conditions: 500 nM, versus DMSO
Experimental: The xCELLigence system was used to perform cell migration assays on the RTCA DP instrument. Electrical impedance due to cell migration is represented as cell index. GBM cells were seeded on fibronectin coated wells of the RTCA CIM-plate 16 (ACEA Biosciences) and allowed to attach and spread for 1 hour at room temperature. After 1 hour, wells were treated with DMSO vehicle or 500 nM Lck inhibitor. As cells migrated towards the lower chamber containing 10% FBS with DMSO vehicle or 500 nM Lck inhbitor, measurements were captured every 5 minutes. Cell index data was plotted overtime and the slope between 2 and 6 hours was calculated.

[15] = biological target: T3, Fyn; assay: Immunoprecipitation/Western blot, phosphorylation state of Fyn; assay type: cell-based; conditions: human glioma cells, 500 nm
Experimental: as §1
Target sequence in this assay (P06241 whole entry): as the sequence (P06241 whole entry, species assumed) above

[16] = test system: human GSCs; assay: Pseudopodia (lamellipodia) formation of human GSCs on fibronectin; assay type: cell-based; conditions: fibronectin substrate, 500 nM, 2 hours, versus untreated/DMSO
Experimental: as §2

[17] = continuous infusion in the lateral ventricle for 4 weeks, n=5

## CC(C)[C@H]1C(=O)N[C@@H](CCCN=C(N)N)C(=O)NCC(=O)N[C@@H](CC(=O)O)C(=O)N[C@H](Cc2ccccc2)C(=O)N1C [EMD121974, Cilengitide]
[1]
  effect on glioma xenografts: significant regression
[2]
  apoptosis: induces apoptosis

## COc1cc(-c2nn([C@H]3CC[C@H](N4CCN(C(C)=O)CC4)CC3)c3ncnc(N)c23)ccc1NC(=O)c1cc2ccccc2n1C [Lck-I, A770041]
[3]
  phosphorylation state of Lyn: does not affect; also recorded: no effect
[4]; 500 nM
  total area of migration (surface area covered by migrating glioma cells): significant reduction
[4]; n=6
  integration of tumor cells within the axonal network: almost complete lack of integration; also recorded: limited integration and expansion
[4]; versus control
  migration of individual glioma cells (GFAP+/Ki67+ migrating tumor cells): inhibition of migration; also recorded: significant decrease
[5]
  phospho-paxillin(Y118) staining at focal adhesions: reduced; also recorded: almost complete absence
[6]
  invasion (depth/total area of invasion within scaffold, z-stack confocal): significant inhibition; also recorded: significant reduction
[7]; all treated animals, 4 weeks
  body condition score: excellent
[7]; continuous infusion in the lateral ventricle for 4 weeks
  side effects of local administration: no apparent side effects
[7]; [17]
  invasion/migration of human glioma cells within the brain parenchyma: minimal invasion/integration; also recorded: significant inhibition of tumor migration and invasion; also recorded: minimal invasion and migration
  tissue necrosis: absence of tissue necrosis; also recorded: lack of focal necrosis
[7]; continuous infusion in the lateral ventricle for 4 weeks, versus PBS/DMSO, n=5
  tumor formation: complete lack of solid tumor formation; also recorded: significant inhibition of tumor formation
[8]
  phosphorylation level of CrkII, phospho(Y221)-CrkII: significantly reduced; also recorded: significant reduction
[9]
  phosphorylation level of Lck, phospho(Y394)-Lck: significantly reduced; also recorded: significant reduction
[10]
  phosphorylation level of paxillin, phospho(Y118)-paxillin: significantly reduced; also recorded: significant reduction
[11]
  migration along parallel axonal bundles (finger-like projections): complete inhibition of migration; also recorded: complete ablation of the finger-like projections
[12]
  specificity for Lck over Lyn: 8 fold
[13]
  specificity for Lck over Fyn: 300 fold
[14]
  human GSC migration (surface area by electrical impedance): significant reduction
[14]; fibronectin-coated plate
  cell spreading (cell processes) after addition: immediate retraction of cell processes
[15]
  phosphorylation state of Fyn: does not affect; also recorded: no effect
[16]
  number of pseudopodia (lamellipodia) per cell: significantly reduced; also recorded: significantly lower
